{
  "source": "patent US11504382B2",
  "about": "“Tricyclic inhibitors of Hepatitis B virus” (Antios Therapeutics, Inc., priority 2018, dated 2022)",
  "data": [
    {"test_system": "HBV", "assay": "HBV inhibition assay in HepAD38 cells (extracellular HBV DNA by direct qPCR)", "assay_type": "cell-based, Hepatitis B virus", "conditions": "0.05 μM, 96 hours, relative to non-treated reference", "values": [
      {"compound": "Ethyl 8-((3-chloro-4-fluorophenyl)carbamoyl)-7-methyl-3a,4,10,10a-tetrahydro-1H,7H-dipyrrolo[3,4-b:3′,4′-f][1,4,5]oxathiazocine-2(3H)-carboxylate 5,5-dioxide (3aR,10aR) [Example E41]", "Anti HBV Activity (conc μM)": "A (0.05) (HBV inhibition greater than 50% at the concentration indicated in the table)"}
    ]},
    {"test_system": "HBV", "assay": "HBV inhibition assay in HepAD38 cells (extracellular HBV DNA by direct qPCR)", "assay_type": "cell-based, Hepatitis B virus", "conditions": "0.1 μM, 96 hours, relative to non-treated reference", "values": [
      {"compound": "Ethyl 8-((3-chloro-4-fluorophenyl)carbamoyl)-7-methyl-3a,4,10,10a-tetrahydro-1H,7H-dipyrrolo[3,4-b:3′,4′-f][1,4,5]oxathiazocine-2(3H)-carboxylate 5,5-dioxide (3aS,10aS) [Example E42]", "Anti HBV Activity (conc μM)": "B (0.1) (HBV inhibition less than 50% at the concentration indicated in the table)"},
      {"compound": "Ethyl 8-((4-fluoro-3-methylphenyl)carbamoyl)-7-methyl-3a,4,10,10a-tetrahydro-1H,7H-dipyrrolo[3,4-b:3′,4′-f][1,4,5]oxathiazocine-2(3H)-carboxylate 5,5-dioxide (3aS,10aS) [Example E40]", "Anti HBV Activity (conc μM)": "B (0.1) (HBV inhibition less than 50% at the concentration indicated in the table)"},
      {"compound": "ethyl 7-methyl-8-((3,4,5-trifluorophenyl)carbamoyl)-3a,4,10,10a-tetrahydro-1H,7H-dipyrrolo[3,4-b:3′,4′-f][1,4,5]oxathiazocine-2(3H)-carboxylate 5,5-dioxide (3aR,10aR) [Example E31]", "Anti HBV Activity (conc μM)": "B (0.1) (HBV inhibition less than 50% at the concentration indicated in the table)"},
      {"compound": "ethyl 7-methyl-8-((3,4,5-trifluorophenyl)carbamoyl)-3a,4,10,10a-tetrahydro-1H,7H-dipyrrolo[3,4-b:3′,4′-f][1,4,5]oxathiazocine-2(3H)-carboxylate 5,5-dioxide (3aS,10aS) [Example E32]", "Anti HBV Activity (conc μM)": "A (0.1) (HBV inhibition greater than 50% at the concentration indicated in the table)"}
    ]},
    {"test_system": "HBV", "assay": "HBV inhibition assay in HepAD38 cells (extracellular HBV DNA by direct qPCR)", "assay_type": "cell-based, Hepatitis B virus", "conditions": "96 hours, 8-point dose-response curve, read-out: HBV inh EC50", "units": {"EC50": "µM"}, "values": [
      {"compound": "Cc1cc(NC(=O)c2c3c(cn2C)S(=O)(=O)NC2CN(C(=O)C4(C)COC4)CC2CO3)ccc1F", "note": "(stereo not drawn) [Example E149, Trans-N-(4-fluoro-3-methylphenyl)-7-methyl-2-(3-methyloxetane-3-carbonyl)-2,3,3a,4,10,10a-hexahydro-1H,7H-dipyrrolo[3,4-b:3′,4′-f][1,4,5]oxathiazocine-8-carboxamide 5,5-dioxide]", "EC50": "< 1"},
      {"compound": "Ethyl 8-((3-chloro-4-fluorophenyl)carbamoyl)-7-methyl-3a,4,10,10a-tetrahydro-1H,7H-dipyrrolo[3,4-b:3′,4′-f][1,4,5]oxathiazocine-2(3H)-carboxylate 5,5-dioxide (3aR,10aR) [Example E41]", "EC50": "< 1"},
      {"compound": "ethyl 7-methyl-8-((3,4,5-trifluorophenyl)carbamoyl)-3a,4,10,10a-tetrahydro-1H,7H-dipyrrolo[3,4-b:3′,4′-f][1,4,5]oxathiazocine-2(3H)-carboxylate 5,5-dioxide (3aS,10aS) [Example E32]", "EC50": "< 1"}
    ]},
    {"test_system": "HBV", "assay": "HBV inhibition assay in HepAD38 cells (extracellular HBV DNA by direct qPCR)", "assay_type": "cell-based, Hepatitis B virus", "conditions": "Hepatitis B virus, 96 hours, 8-point dose-response curve, read-out: HBV inh EC50", "units": {"EC50": "µM"}, "values": [
      {"compound": "Cc1cc(NC(=O)c2c3c(cn2C)S(=O)(=O)N[C@H]2CN(C(=O)c4ncoc4C)C[C@H]2CO3)ccc1F", "note": "[Example E113, (3aR,10aR)—N-(4-fluoro-3-methylphenyl)-7-methyl-2-(5-methyloxazole-4-carbonyl)-2,3,3a,4,10,10a-hexahydro-1H,7H-dipyrrolo[3,4-b:3′,4′-f][1,4,5]oxathiazocine-8-carboxamide 5,5-dioxide]", "EC50": "< 1"},
      {"compound": "Cc1nc(C(=O)N2C[C@H]3COc4c(cn(C)c4C(=O)Nc4ccc(F)c(C)c4)S(=O)(=O)N[C@H]3C2)c(C)o1", "note": "[Example E114, (3aR,10aR)-2-(2,5-dimethyloxazole-4-carbonyl)-N-(4-fluoro-3-methylphenyl)-7-methyl-2,3,3a,4,10,10a-hexahydro-1H,7H-dipyrrolo[3,4-b:3′,4′-f][1,4,5]oxathiazocine-8-carboxamide 5,5-dioxide]", "EC50": "< 1"},
      {"compound": "Cc1noc(N2C[C@H]3COc4c(cn(C)c4C(=O)Nc4ccc(F)c(C)c4)S(=O)(=O)N[C@H]3C2)n1", "note": "[Example E115, (3aR,10aR)—N-(4-fluoro-3-methylphenyl)-7-methyl-2-(3-methyl-1,2,4-oxadiazol-5-yl)-2,3,3a,4,10,10a-hexahydro-1H,7H-dipyrrolo[3,4-b:3′,4′-f][1,4,5]oxathiazocine-8-carboxamide 5,5-dioxide]", "EC50": "< 1"},
      {"compound": "Cc1noc(N2C[C@H]3COc4c(cn(C)c4C(=O)Nc4ccc(F)c(Cl)c4)S(=O)(=O)N[C@H]3C2)n1", "note": "[Example E116, (3aR,10aR)—N-(3-chloro-4-fluorophenyl)-7-methyl-2-(3-methyl-1,2,4-oxadiazol-5-yl)-2,3,3a,4,10,10a-hexahydro-1H,7H-dipyrrolo[3,4-b:3′,4′-f][1,4,5]oxathiazocine-8-carboxamide 5,5-dioxide]", "EC50": "< 1"},
      {"compound": "Cc1noc(N2C[C@H]3COc4c(cn(C)c4C(=O)Nc4cc(F)c(F)c(F)c4)S(=O)(=O)N[C@H]3C2)n1", "note": "[Example E117, (3aR,10aR)-7-methyl-2-(3-methyl-1,2,4-oxadiazol-5-yl)-N-(3,4,5-trifluorophenyl)-2,3,3a,4,10,10a-hexahydro-1H,7H-dipyrrolo[3,4-b:3′,4′-f][1,4,5]oxathiazocine-8-carboxamide 5,5-dioxide]", "EC50": "< 1"},
      {"compound": "Cc1nnc(N2C[C@H]3COc4c(cn(C)c4C(=O)Nc4ccc(F)c(C)c4)S(=O)(=O)N[C@H]3C2)o1", "note": "[Example E118, (3aR,10aR)—N-(4-fluoro-3-methylphenyl)-7-methyl-2-(5-methyl-1,3,4-oxadiazol-2-yl)-2,3,3a,4,10,10a-hexahydro-1H,7H-dipyrrolo[3,4-b:3′,4′-f][1,4,5]oxathiazocine-8-carboxamide 5,5-dioxide]", "EC50": "< 1"},
      {"compound": "Cc1nnc(N2C[C@H]3COc4c(cn(C)c4C(=O)Nc4ccc(F)c(Cl)c4)S(=O)(=O)N[C@H]3C2)o1", "note": "[Example E119, (3aR,10aR)—N-(3-chloro-4-fluorophenyl)-7-methyl-2-(5-methyl-1,3,4-oxadiazol-2-yl)-2,3,3a,4,10,10a-hexahydro-1H,7H-dipyrrolo[3,4-b:3′,4′-f][1,4,5]oxathiazocine-8-carboxamide 5,5-dioxide]", "EC50": "< 1"},
      {"compound": "Cc1nnc(N2C[C@H]3COc4c(cn(C)c4C(=O)Nc4cc(F)c(F)c(F)c4)S(=O)(=O)N[C@H]3C2)o1", "note": "[Example E120, (3aR,10aR)-7-methyl-2-(5-methyl-1,3,4-oxadiazol-2-yl)-N-(3,4,5-trifluorophenyl)-2,3,3a,4,10,10a-hexahydro-1H,7H-dipyrrolo[3,4-b:3′,4′-f][1,4,5]oxathiazocine-8-carboxamide 5,5-dioxide]", "EC50": "< 1"},
      {"compound": "CCOC(=O)N1C[C@H]2CSc3c(cn(C)c3C(=O)Nc3ccc(F)c(C)c3)S(=O)(=O)N[C@H]2C1", "note": "[Example E121, Ethyl (3aR,10aR)-8-((4-fluoro-3-methylphenyl)carbamoyl)-7-methyl-3a,4,10,10a-tetrahydro-1H,7H-dipyrrolo[3,4-c:3′,4′-g][1,6,2]dithiazocine-2(3H)-carboxylate 5,5-dioxide]", "EC50": "< 1"},
      {"compound": "CCOC(=O)N1C[C@H]2C[S+]([O-])c3c(cn(C)c3C(=O)Nc3ccc(F)c(C)c3)S(=O)(=O)N[C@H]2C1", "note": "(stereo partly drawn) [Example E122, Ethyl (3aR,10aR)-8-((4-fluoro-3-methylphenyl)carbamoyl)-7-methyl-3a,4,10,10a-tetrahydro-1H,7H-dipyrrolo[3,4-c:3′,4′-g][1,6,2]dithiazocine-2(3H)-carboxylate 5,5,9-trioxide]", "EC50": "< 1"},
      {"compound": "CCOC(=O)N1C[C@H]2CS(=O)(=O)c3c(cn(C)c3C(=O)Nc3ccc(F)c(C)c3)S(=O)(=O)N[C@H]2C1", "note": "[Example E123, Ethyl (3aR,10aR)-8-((4-fluoro-3-methylphenyl)carbamoyl)-7-methyl-3a,4,10,10a-tetrahydro-1H,7H-dipyrrolo[3,4-c:3′,4′-g][1,6,2]dithiazocine-2(3H)-carboxylate 5,5,9,9-tetraoxide]", "EC50": "< 1"},
      {"compound": "Cc1nnc(C(=O)N2C[C@H]3CSc4c(cn(C)c4C(=O)Nc4ccc(F)c(C)c4)S(=O)(=O)N[C@H]3C2)o1", "note": "[Example E124, (3aR,10aR)—N-(4-fluoro-3-methylphenyl)-7-methyl-2-(5-methyl-1,3,4-oxadiazole-2-carbonyl)-2,3,3a,4,10,10a-hexahydro-1H,7H-dipyrrolo[3,4-c:3′,4′-g][1,6,2]dithiazocine-8-carboxamide 5,5-dioxide]", "EC50": "< 1"},
      {"compound": "Cc1cc(NC(=O)c2c3c(cn2C)S(=O)(=O)NC2CN(C(=O)OC(C)(C)C)CC2CO3)ccc1F", "note": "(stereo not drawn) [Example E145, Trans-Tert-Butyl 8-((4-fluoro-3-methylphenyl)carbamoyl)-7-methyl-3a,4,10,10a-tetrahydro-1H,7H-dipyrrolo[3,4-b:3′,4′-f][1,4,5]oxathiazocine-2(3H)-carboxylate 5,5-dioxide]", "EC50": "< 1"},
      {"compound": "Cc1cc(NC(=O)c2c3c(cn2C)S(=O)(=O)NC2CN(C(=O)c4ncoc4C)CC2CO3)ccc1F", "note": "(stereo not drawn) [Example E147, Trans-N-(4-fluoro-3-methylphenyl)-7-methyl-2-(5-methyloxazole-4-carbonyl)-2,3,3a,4,10,10a-hexahydro-1H,7H-dipyrrolo[3,4-b:3′,4′-f][1,4,5]oxathiazocine-8-carboxamide 5,5-dioxide]", "EC50": "< 1"},
      {"compound": "Cc1cc(NC(=O)c2c3c(cn2C)S(=O)(=O)NC2CN(C(=O)C4(C)CCCO4)CC2CO3)ccc1F", "note": "(stereo not drawn) [Example E148, Trans-N-(4-fluoro-3-methylphenyl)-7-methyl-2-(2-methyltetrahydrofuran-2-carbonyl)-2,3,3a,4,10,10a-hexahydro-1H,7H-dipyrrolo[3,4-b:3′,4′-f][1,4,5]oxathiazocine-8-carboxamide 5,5-dioxide]", "EC50": "< 1"},
      {"compound": "Cc1cc(NC(=O)c2c3c(cn2C)S(=O)(=O)NC2CN(C(=O)C45CC(CO4)C5)CC2CO3)ccc1F", "note": "(stereo not drawn) [Example E150, Trans-2-(2-oxabicyclo[2.1.1]hexane-1-carbonyl)-N-(4-fluoro-3-methylphenyl)-7-methyl-2,3,3a,4,10,10a-hexahydro-1H,7H-dipyrrolo[3,4-b:3′,4′-f][1,4,5]oxathiazocine-8-carboxamide 5,5-dioxide]", "EC50": "< 1"},
      {"compound": "Cc1cc(NC(=O)c2c3c(cn2C)S(=O)(=O)NC2C(=O)N(Cc4ccccc4)CC2CO3)ccc1F", "note": "(stereo not drawn) [Example E155, Cis 2-benzyl-N-(4-fluoro-3-methylphenyl)-7-methyl-3-oxo-2,3,3a,4,10,10a-hexahydro-1H,7H-dipyrrolo[3,4-b:3′,4′-f][1,4,5]oxathiazocine-8-carboxamide 5,5-dioxide]", "EC50": "< 1"},
      {"compound": "CCOC(=O)N1CC2CNc3c(cn(C)c3C(=O)Nc3ccc(F)c(C)c3)S(=O)(=O)NC2C1", "note": "(stereo not drawn) [Example E157, Cis Ethyl 8-((4-fluoro-3-methylphenyl)carbamoyl)-7-methyl-3a,4,7,9,10,10a-hexahydro-1H-dipyrrolo[3,4-c:3′,4′-g][1,2,6]thiadiazocine-2(3H)-carboxylate 5,5-dioxide]", "EC50": "> 1"}
    ]}
  ]
}
